Data published in ChEMBL document CHEMBL4251725, “Azabicyclic Fused Pyrimidine Derivatives Useful for the Treatment of Alzheimer's Disease” (ACS Med Chem Lett, 2018).

Molecular target: Gamma-secretase
Test: Inhibition of gamma-secretase in human H4 cells harboring APP695 K595N/M596L swedish mutant after 24 hrs by AlphaLisa assay
Format: cell-based

EC50	SMILES
8 nM	CNc1nc(Nc2ccc(-n3cnc(C)n3)c(F)c2)nc2c1C(C)(C)CCN2c1ccc(F)cc1
14 nM	CNc1nc(Nc2ccc(-n3cnc(C)c3)c(OC)c2)nc2c1C(C)(C)CN2C1CC(F)(F)C1
